Patent US20170000133A1, “BENZOXABOROLE FUNGICIDES” (SYNGENTA PARTICIPATIONS AG, priority 2013, published 2017)

Tests used:
[1] = tested on: Mycosphaerella graminicola (Septoria tritici); test: Mycosphaerella graminicola (Septoria tritici) / liquid culture (Septoria blotch); assay type: cell-based; conditions: Zymoseptoria tritici, PDB potato dextrose broth, 24° C., 4-5 days after application, read-out: disease control (inhibition of growth determined photometrically)
Method: (§1) 13. Mycosphaerella graminicola (Septoria tritici)/Liquid Culture (Septoria Blotch): Conidia of the fungus from cryogenic storage were directly mixed into nutrient broth (PDB potato dextrose broth). After placing a DMSO solution of test compound into a 96-well microtiter plate at an application rate of 200 ppm, the nutrient broth containing the fungal spores was added. The test plates were incubated at 24° C. and the inhibition of growth was determined photometrically 4-5 days after application.

[2] = tested on: Pythium ultimum; test: Pythium ultimum / liquid culture (seedling damping off); assay type: cell-based; conditions: Globisporangium ultimum; 200 ppm; potato dextrose broth, 24° C., 2-3 days after application; read-out: disease control (inhibition of growth determined photometrically)
[3] = tested on: Thanatephorus cucumeris (Rhizoctonia solani); test: Thanatephorus cucumeris (Rhizoctonia solani) / liquid culture (foot rot, damping-off); assay type: cell-based; conditions: PDB potato dextrose broth, 24° C., 3-4 days after application, read-out: disease control (inhibition of growth determined photometrically)
Method: 17. Thanatephorus cucumeris (Rhizoctonia solani)/Liquid Culture (Foot Rot, Damping-Off): Mycelia fragments of a newly grown liquid culture of the fungus were directly mixed into nutrient broth (PDB potato dextrose broth). After placing a DMSO solution of the test compounds into a 96-well microtiter plate at an application rate of 200 ppm, the nutrient broth containing the fungal material was added. The test plates were incubated at 24° C. and the inhibition of growth was determined photometrically 3-4 days after application.

[4] = tested on: Monographella nivalis (Microdochium nivale); test: Monographella nivalis (Microdochium nivale) / liquid culture (foot rot cereals); assay type: cell-based; conditions: PDB potato dextrose broth, 24° C., 4-5 days after application, read-out: disease control (inhibition of growth determined photometrically)
[5] = tested on: Gaeumannomyces graminis; test: Gaeumannomyces graminis / liquid culture (take-all of cereals); assay type: cell-based; conditions: PDB potato dextrose broth, 24° C., 4-5 days after application, read-out: disease control (inhibition of growth determined photometrically)
Method: 14. Gaeumannomyces graminis/Liquid Culture (Take-all of Cereals): Mycelial fragments of the fungus from cryogenic storage were directly mixed into nutrient broth (PDB potato dextrose broth). After placing a DMSO solution of test compound into a 96-well microtiter plate at an application rate of 200 ppm, the nutrient broth […], containing the fungal spores is added. The test plates were incubated at 24° C. and the inhibition of growth was determined photometrically 4-5 days after application.

[6] = tested on: Plasmopara viticola; test: whole plant or invertebrate; assay type: in vivo; conditions: foliar, read-out: disease control
[7] = tested on: Mycosphaerella arachidis (Cercospora arachidicola); test: Mycosphaerella arachidis (Cercospora arachidicola) / liquid culture (early leaf spot); assay type: cell-based; conditions: PDB potato dextrose broth, 24° C., 4-5 days after application, read-out: disease control (inhibition of growth determined photometrically)
Method: as §1, with “12.” for “13.”, “arachidis (Cercospora arachidicola)/Liquid” for “graminicola (Septoria tritici)/Liquid”, “(Early Leaf Spot):” for “(Septoria Blotch):”

O=C(OCC(Cl)(Cl)Cl)c1ccc2c(c1)B(O)OC2 [Compound 321]
≥ 80%: inhibition at 200 ppm [1] | inhibition at 200 ppm [2] | inhibition at 200 ppm [3] | inhibition at 200 ppm [4] | inhibition at 200 ppm [5]

O=C(OCCC(F)(F)F)c1cc2c(cc1F)COB2O [Compound 431]
≥ 80%: inhibition at 200 ppm [2] | inhibition at 200 ppm [3] | inhibition at 200 ppm [4] | inhibition at 200 ppm [5]

O=C(OCC1CCCO1)c1ccc2c(c1)B(O)OC2 (centres unmarked) [Compound 337]
≥ 80%: pest or weed control at 200 ppm [6] | inhibition at 200 ppm [2] | inhibition at 200 ppm [3] | inhibition at 200 ppm [7] | inhibition at 200 ppm [4]

Cc1csc(NC(=O)c2ccc3c(c2)B(O)OC3)n1 [Compound 298]
≥ 80%: pest or weed control at 200 ppm [6] | inhibition at 200 ppm [2] | inhibition at 200 ppm [7]

C#CC(OC(=O)c1cc2c(cc1F)COB2O)c1ccccc1 (centres unmarked) [Compound 399]
≥ 80%: inhibition at 200 ppm [1] | pest or weed control at 200 ppm [6] | inhibition at 200 ppm [2] | inhibition at 200 ppm [3] | inhibition at 200 ppm [4] | inhibition at 200 ppm [5]

O=C(OCC(F)(F)Cl)c1cc2c(cc1F)COB2O [Compound 374]
≥ 80%: inhibition at 200 ppm [1] | pest or weed control at 200 ppm [6] | inhibition at 200 ppm [2] | inhibition at 200 ppm [3] | inhibition at 200 ppm [4] | inhibition at 200 ppm [5]

O=C(Nc1ccc2ccccc2n1)c1cc2c(cc1Cl)COB2O [Compound 154]
≥ 80%: inhibition at 200 ppm [1] | inhibition at 200 ppm [2]

O=C(OCc1ccco1)c1cc2c(cc1F)COB2O [Compound 398]
≥ 80%: pest or weed control at 200 ppm [6] | inhibition at 200 ppm [2] | inhibition at 200 ppm [3] | inhibition at 200 ppm [7] | inhibition at 200 ppm [4]

COc1ccc(CNC(=O)c2ccc3c(c2)B(O)OC3)cc1 [Compound 271]
≥ 80%: pest or weed control at 200 ppm [6] | inhibition at 200 ppm [2] | inhibition at 200 ppm [7]

O=C(Nc1ccc2ccccc2n1)c1cc2c(cc1F)COB2O [Compound 179]
≥ 80%: inhibition at 200 ppm [1] | pest or weed control at 200 ppm [6] | inhibition at 200 ppm [2] | inhibition at 200 ppm [4] | inhibition at 200 ppm [5]

O=C(NCc1ccc(Oc2ccccc2)cc1)c1cc2c(cc1Cl)COB2O [Compound 103]
≥ 80%: pest or weed control at 200 ppm [6] | inhibition at 200 ppm [2] | inhibition at 200 ppm [4] | inhibition at 200 ppm [5]

O=C(NCc1ccccc1)c1ccc2c(c1)B(O)OC2 [Compound 261]
≥ 80%: pest or weed control at 200 ppm [6] | inhibition at 200 ppm [2] | inhibition at 200 ppm [7]

CC(C)c1ccc(NC(=O)c2ccc3c(c2)B(O)OC3)cc1 [Compound 279]
≥ 80%: pest or weed control at 200 ppm [6] | inhibition at 200 ppm [2] | inhibition at 200 ppm [4]

CC(=O)c1sc(NC(=O)c2ccc3c(c2)B(O)OC3)nc1C [Compound 302]
≥ 80%: inhibition at 200 ppm [2] | inhibition at 200 ppm [7]

O=C(OC1COC1)c1cc2c(cc1F)COB2O [Compound 425]
≥ 80%: pest or weed control at 200 ppm [6] | inhibition at 200 ppm [2] | inhibition at 200 ppm [5]

O=C(NCc1ccccc1OC(F)(F)F)c1cc2c(cc1Cl)COB2O [Compound 95]
≥ 80%: pest or weed control at 200 ppm [6] | inhibition at 200 ppm [4]

O=C(OC1CCOCC1)c1ccc2c(c1)B(O)OC2 [Compound 366]
≥ 80%: pest or weed control at 200 ppm [6] | inhibition at 200 ppm [2] | inhibition at 200 ppm [3] | inhibition at 200 ppm [7]

O=C(NCc1ccccc1)c1cc2c(cc1F)COB2O [Compound 104]
≥ 80%: inhibition at 200 ppm [2] | inhibition at 200 ppm [7]

O=C(NCCOc1ccccc1)c1ccc2c(c1)B(O)OC2 [Compound 267]
≥ 80%: inhibition at 200 ppm [2] | inhibition at 200 ppm [7]

O=C(OCc1ccco1)c1cc2c(cc1Cl)COB2O [Compound 210]
≥ 80%: inhibition at 200 ppm [2] | inhibition at 200 ppm [3] | inhibition at 200 ppm [5]

N#CCOC(=O)c1ccc2c(c1)B(O)OC2 [Compound 338]
≥ 80%: pest or weed control at 200 ppm [6] | inhibition at 200 ppm [2] | inhibition at 200 ppm [3]

O=C(OCC1CCCO1)c1cc2c(cc1F)COB2O (centres unmarked) [Compound 400]
≥ 80%: pest or weed control at 200 ppm [6] | inhibition at 200 ppm [2] | inhibition at 200 ppm [3]

COCCOCCOCCOC(=O)c1ccc2c(c1)B(O)OC2 [Compound 371]
≥ 80%: inhibition at 200 ppm [2] | inhibition at 200 ppm [7]

O=C(OCc1ncc(C(F)(F)F)cc1Cl)c1ccc2c(c1)B(O)OC2 [Compound 347]
≥ 80%: inhibition at 200 ppm [2] | inhibition at 200 ppm [7] | inhibition at 200 ppm [5]

O=C(COC(=O)c1cc2c(cc1F)COB2O)c1ccccc1 [Compound 397]
≥ 80%: inhibition at 200 ppm [1] | pest or weed control at 200 ppm [6] | inhibition at 200 ppm [2] | inhibition at 200 ppm [3] | inhibition at 200 ppm [4]

C[Si](C)(C)CCCOC(=O)c1ccc2c(c1)B(O)OC2 [Compound 316]
≥ 80%: inhibition at 200 ppm [2] | inhibition at 200 ppm [3] | inhibition at 200 ppm [4] | inhibition at 200 ppm [5]

CC(C#N)OC(=O)c1ccc2c(c1)B(O)OC2 (centres unmarked) [Compound 315]
≥ 80%: inhibition at 200 ppm [2] | inhibition at 200 ppm [3]

O=C(OC1CCCCC1)c1cc2c(cc1F)COB2O [Compound 417]
≥ 80%: inhibition at 200 ppm [1] | pest or weed control at 200 ppm [6] | inhibition at 200 ppm [2] | inhibition at 200 ppm [3] | inhibition at 200 ppm [4] | inhibition at 200 ppm [5]

COC(=O)c1sccc1NC(=O)c1ccc2c(c1)B(O)OC2 [Compound 308]
≥ 80%: pest or weed control at 200 ppm [6] | inhibition at 200 ppm [4]

O=C(OCCCCc1ccc2ccccc2c1)c1cc2c(cc1F)COB2O [Compound 415]
≥ 80%: inhibition at 200 ppm [3] | inhibition at 200 ppm [7] | inhibition at 200 ppm [4] | inhibition at 200 ppm [5]

O=C(OCc1ccc(C(F)(F)F)nc1)c1cc2c(cc1F)COB2O [Compound 405]
≥ 80%: inhibition at 200 ppm [2] | inhibition at 200 ppm [3] | inhibition at 200 ppm [7] | inhibition at 200 ppm [4]

C=CCC(OC(=O)c1cc2c(cc1Cl)COB2O)C(=O)OC (centres unmarked) [Compound 222]
≥ 80%: inhibition at 200 ppm [2] | inhibition at 200 ppm [3] | inhibition at 200 ppm [4]

O=C(OC1CCOC1)c1ccc2c(c1)B(O)OC2 (centres unmarked) [Compound 364]
≥ 80%: pest or weed control at 200 ppm [6] | inhibition at 200 ppm [2] | inhibition at 200 ppm [3]

O=C(OC(CF)CF)c1cc2c(cc1F)COB2O [Compound 368]
≥ 80%: pest or weed control at 200 ppm [6] | inhibition at 200 ppm [2] | inhibition at 200 ppm [3] | inhibition at 200 ppm [4]

CC(F)COC(=O)c1ccc2c(c1)B(O)OC2 (centres unmarked) [Compound 335]
≥ 80%: pest or weed control at 200 ppm [6] | inhibition at 200 ppm [2] | inhibition at 200 ppm [3]

O=C(Nc1ccccc1-c1cc2ccccc2[nH]1)c1ccc2c(c1)B(O)OC2 [Compound 292]
≥ 80%: pest or weed control at 200 ppm [6] | inhibition at 200 ppm [2] | inhibition at 200 ppm [5]

COCCOC(=O)c1ccc2c(c1)B(O)OC2 [Compound 350]
≥ 80%: inhibition at 200 ppm [2] | inhibition at 200 ppm [3] | inhibition at 200 ppm [7] | inhibition at 200 ppm [4]

Cc1ccccc1NC(=O)c1cc2c(cc1F)COB2O [Compound 148]
≥ 80%: inhibition at 200 ppm [2] | inhibition at 200 ppm [3]

O=C(OCCCCc1ccc2ccccc2c1)c1ccc2c(c1)B(O)OC2 [Compound 353]
≥ 80%: inhibition at 200 ppm [7] | inhibition at 200 ppm [5]
